According to ChEMBL document CHEMBL4842357, “Discovery of Novel Apigenin-Piperazine Hybrids as Potent and Selective Poly (ADP-Ribose) Polymerase-1 (PARP-1) Inhibitors for the Treatment of Cancer” (J Med Chem, 2021):
The source made the active and inactive calls. No cut-off for these calls is given here.

Legend:
[1] = molecular target: T1, Poly [ADP-ribose] polymerase 1 (Homo sapiens, UniProt P09874); assay: Inhibition of PARP-1 in human SK-OV-3 cells assessed as induction of DNA damage by measuring increase in gamma H2AX expression at 0.1 to 10 uM by Western blot analysis; assay type: cell-based; conditions: dose 0.1-10 µM
[2] = molecular target: T1, Poly [ADP-ribose] polymerase 1; assay: Inhibition of PARP-1 in human SK-OV-3 cells assessed as decrease in MCM4 protein expression level at 0.1 to 10 uM by Western blot analysis; assay type: cell-based; conditions: dose 0.1-10 µM
[3] = molecular target: T1, Poly [ADP-ribose] polymerase 1; assay: Inhibition of PARP-1 in human SK-OV-3 cells assessed as decrease in MCM2 protein expression level at 0.1 to 10 uM by Western blot analysis; assay type: cell-based; conditions: dose 0.1-10 µM
A549 [4] = assay: Antitumor activity against human A549 cells xenografted in BALB/c nude mouse assessed as induction of CBP mediated tumor growth inhibition at 50 mg/kg, po administered once daily for 12 days in presence of CBP; assay type: functional, organism-based; conditions: time 12.0 day
SK-OV-3 [5] = assay: Antitumor activity against human SK-OV-3 cells xenografted in BALB/c nude mouse assessed as decrease in tumor volume at 50 mg/kg, po administered once daily measured for 28 days; assay type: functional, organism-based; conditions: time 28.0 day
[6] = molecular target: T1, Poly [ADP-ribose] polymerase 1; assay: Inhibition of PARP-1 in human SK-OV-3 cells assessed as decrease in H2O2-induced PAR level at 0.1 to 10 uM preincubated for 4 hrs followed by H2O2 addition by Western blot analysis; assay type: cell-based; conditions: dose 0.1-10 µM
A549 [7] = assay: Cytotoxicity against human A549 cells transfected with PARP-1 siRNA assessed as sensitization of CBP at 0.1 to 10 uM incubated for 48 hrs in presence of CBP by MTT assay; assay type: functional, cell-based; conditions: dose 0.1-10 µM
SK-OV-3 [8] = assay: Antitumor activity against human SK-OV-3 cells xenografted in BALB/c nude mouse assessed as increase in gamma-H2AX expression in tumor at 25 to 50 mg/kg, po measured after 28 days by immunohistochemistry analysis; assay type: functional, organism-based; conditions: dose 25-50 mg/kg, time 28.0 day
[9] = molecular target: T1, Poly [ADP-ribose] polymerase 1; assay: Inhibition of PARP-1 in human SK-OV-3 cells assessed as decrease in MCM7 protein expression level at 0.1 to 10 uM by Western blot analysis; assay type: cell-based; conditions: dose 0.1-10 µM
[10] = molecular target: T2, Poly [ADP-ribose] polymerase 2 (Homo sapiens, UniProt Q9UGN5); assay: Binding affinity to PARP-2 in human SK-OV-3 cells assessed as thermal stabilization after 3 hrs by ITDRF-CETSA; assay type: cell-based; conditions: dose 0.1-10 µM
[11] = molecular target: T1, Poly [ADP-ribose] polymerase 1; assay: Inhibition of PARP-1 in human SK-OV-3 cells assessed as induction of DNA damage by measuring increase in gamma H2AX expression by immunofluorescence assay; assay type: cell-based
A549 [12] = assay: Antitumor activity against human A549 cells xenografted in BALB/c nude mouse assessed as tumor growth inhibition at 50 mg/kg, po administered once daily for 12 days; assay type: functional, organism-based; conditions: time 12.0 day
SK-OV-3 [13] = assay: Antitumor activity against human SK-OV-3 cells xenografted in BALB/c nude mouse assessed as decrease in PAR level at 25 to 50 mg/kg, po measured after 28 days by Western blot analysis; assay type: functional, organism-based; conditions: dose 25-50 mg/kg, time 28.0 day
SK-OV-3 [14] = assay: Cytotoxicity against human BRCA-1 deficient SK-OV-3 cells assessed as reduction in cell viability at 0.1 to 10 uM incubated for 48 hrs by MTT assay; assay type: functional, cell-based; conditions: dose 0.1-10 µM
[15] = molecular target: T2, Poly [ADP-ribose] polymerase 2; assay: Binding affinity to PARP-2 in human SK-OV-3 cells assessed as increase in thermal stabilization of PARP-2 at 1 uM after 3 hrs by CETSA; assay type: cell-based
[16] = molecular target: T1, Poly [ADP-ribose] polymerase 1; assay: Inhibition of PARP-1 in human SK-OV-3 cells assessed as decrease in MCM3 protein expression level at 0.1 to 10 uM by Western blot analysis; assay type: cell-based; conditions: dose 0.1-10 µM
A549 [17] = assay: Cytotoxicity against human A549 cells assessed as induction of CBP cytotoxicity incubated for 48 hrs in presence of CBP by MTT assay; assay type: functional, cell-based; conditions: dose 0.1-10 µM
[18] = molecular target: T1, Poly [ADP-ribose] polymerase 1; assay: Binding affinity to PARP-1 in human SK-OV-3 cells assessed as thermal stabilization after 3 hrs by ITDRF-CETSA; assay type: cell-based; conditions: dose 0.1-10 µM
[19] = molecular target: T1, Poly [ADP-ribose] polymerase 1; assay: Inhibition of PARP-1 in human SK-OV-3 cells assessed as decrease in H2O2-induced PAR level preincubated for 4 hrs followed by H2O2 addition by DAPI staining based inverted fluorescence microscopic analysis; assay type: cell-based
A549 [20] = assay: Cytotoxicity against human A549 cells assessed as reduction in cell viability at 0.1 to 10 uM incubated for 48 hrs by MTT assay; assay type: functional, cell-based; conditions: dose 0.1-10 µM
[21] = molecular target: T1, Poly [ADP-ribose] polymerase 1; assay: Inhibition of PARP-1 in human SK-OV-3 cells assessed as decrease in MCM5 protein expression level at 0.1 to 10 uM by Western blot analysis; assay type: cell-based; conditions: dose 0.1-10 µM
Homo sapiens = species on record: Homo sapiens; assay: Selectivity index, ratio of IC50 for inhibition of recombinant human full-length PARP-2 to IC50 for inhibition of recombinant human full-length PARP-1
[22] = molecular target: T1, Poly [ADP-ribose] polymerase 1; assay: Binding affinity to PARP-1 in human SK-OV-3 cells assessed as increase in thermal stabilization of PARP-1 at 1 uM after 3 hrs by CETSA; assay type: cell-based
SK-OV-3 [23] = assay: Antitumor activity against human SK-OV-3 cells xenografted in BALB/c nude mouse assessed as increase in gamma-H2AX expression in tumor at 25 to 50 mg/kg, po measured after 28 days by Western blot analysis; assay type: functional, organism-based; conditions: dose 25-50 mg/kg, time 28.0 day
SK-OV-3 [24] = assay: Cytotoxicity against human SK-OV-3 cells transfected with PARP-1 siRNA assessed as reduction in cell viability at 0.1 to 10 uM after 48 hrs by MTT assay; assay type: functional, cell-based; conditions: dose 0.1-10 µM
[25] = molecular target: T1, Poly [ADP-ribose] polymerase 1; assay: Inhibition of PARP-1 in human SK-OV-3 cells assessed as decrease in MCM6 protein expression level at 0.1 to 10 uM by Western blot analysis; assay type: cell-based; conditions: dose 0.1-10 µM
SK-OV-3 [26] = assay: Antitumor activity against human SK-OV-3 cells xenografted in BALB/c nude mouse assessed as decrease in PAR level at 25 to 50 mg/kg, po measured after 28 days by immunohistochemistry analysis; assay type: functional, organism-based; conditions: dose 25-50 mg/kg, time 28.0 day
[27] = molecular target: T1, Poly [ADP-ribose] polymerase 1; assay: Inhibition of recombinant human full-length PARP-1 using biotinylated substrate
[28] = molecular target: T2, Poly [ADP-ribose] polymerase 2; assay: Inhibition of recombinant human full-length PARP-2 using biotinylated substrate
[29] = Acute toxicity in ICR mouse assessed as death at 1000 mg/kg, po administered only once at day 1 and measured after 5 to 8 days; assay type: organism-based; conditions: in vivo, time 5-8 day
SK-OV-3 [30] = assay: Antitumor activity against human SK-OV-3 cells xenografted in BALB/c nude mouse assessed as relative tumor volume at 50 mg/kg, po administered once daily for 12 days; assay type: functional; conditions: time 12 day

T1 sequence (P09874 whole entry): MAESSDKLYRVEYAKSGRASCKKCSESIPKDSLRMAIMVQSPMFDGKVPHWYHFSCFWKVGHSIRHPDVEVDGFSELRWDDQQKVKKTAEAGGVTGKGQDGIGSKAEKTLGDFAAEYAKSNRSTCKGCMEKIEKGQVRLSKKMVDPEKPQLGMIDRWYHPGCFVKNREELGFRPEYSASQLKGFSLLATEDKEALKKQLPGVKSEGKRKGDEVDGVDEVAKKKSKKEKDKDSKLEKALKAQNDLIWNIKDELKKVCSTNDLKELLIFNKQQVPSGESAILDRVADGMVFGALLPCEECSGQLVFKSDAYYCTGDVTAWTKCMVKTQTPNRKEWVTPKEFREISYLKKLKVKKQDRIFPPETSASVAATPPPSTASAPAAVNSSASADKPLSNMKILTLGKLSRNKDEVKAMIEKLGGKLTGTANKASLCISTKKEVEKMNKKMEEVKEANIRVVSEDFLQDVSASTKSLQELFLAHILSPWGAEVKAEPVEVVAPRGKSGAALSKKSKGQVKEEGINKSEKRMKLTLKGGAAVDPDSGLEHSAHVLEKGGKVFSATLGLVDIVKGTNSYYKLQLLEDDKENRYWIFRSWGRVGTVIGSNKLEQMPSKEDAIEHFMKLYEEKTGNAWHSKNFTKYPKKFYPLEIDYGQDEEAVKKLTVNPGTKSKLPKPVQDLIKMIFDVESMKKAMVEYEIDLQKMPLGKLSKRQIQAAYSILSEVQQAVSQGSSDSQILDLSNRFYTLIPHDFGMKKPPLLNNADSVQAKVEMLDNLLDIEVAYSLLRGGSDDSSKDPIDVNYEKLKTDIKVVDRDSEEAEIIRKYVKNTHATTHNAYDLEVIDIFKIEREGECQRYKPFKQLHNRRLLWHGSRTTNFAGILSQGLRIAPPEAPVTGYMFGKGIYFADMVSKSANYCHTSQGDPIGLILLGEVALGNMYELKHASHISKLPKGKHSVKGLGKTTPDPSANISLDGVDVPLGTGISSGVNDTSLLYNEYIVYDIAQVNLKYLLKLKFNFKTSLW
T2 sequence (Q9UGN5 whole entry): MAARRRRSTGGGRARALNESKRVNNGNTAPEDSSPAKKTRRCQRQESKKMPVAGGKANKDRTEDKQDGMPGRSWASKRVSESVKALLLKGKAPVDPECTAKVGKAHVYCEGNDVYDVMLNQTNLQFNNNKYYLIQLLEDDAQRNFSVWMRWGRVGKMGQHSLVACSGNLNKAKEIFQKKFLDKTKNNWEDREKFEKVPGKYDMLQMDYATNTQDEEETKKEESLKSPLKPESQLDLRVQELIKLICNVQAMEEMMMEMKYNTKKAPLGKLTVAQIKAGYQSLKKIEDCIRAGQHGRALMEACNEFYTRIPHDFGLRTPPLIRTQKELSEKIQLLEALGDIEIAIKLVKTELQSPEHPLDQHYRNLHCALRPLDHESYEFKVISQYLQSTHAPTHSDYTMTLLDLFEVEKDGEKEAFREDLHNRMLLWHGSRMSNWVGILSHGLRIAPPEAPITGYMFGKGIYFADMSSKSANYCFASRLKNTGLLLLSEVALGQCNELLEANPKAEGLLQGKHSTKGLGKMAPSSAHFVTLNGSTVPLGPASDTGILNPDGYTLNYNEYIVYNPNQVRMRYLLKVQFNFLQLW

## O=c1cc(-c2ccc(O)cc2)oc2c(CN3CCN(Cc4cccs4)CC3)c(O)cc(O)c12
[1]
  inhibition: Active
[2]
  inhibition: Active
[3]
  inhibition: Active
A549 [4]
  Activity: Active
SK-OV-3 [5]
  Activity: Active
[6]
  inhibition: Active
A549 [7]
  Activity: inactive
SK-OV-3 [8]
  Activity: Active
[9]
  inhibition: Active
[10]
  Activity: Dose-Dependent Effect
[11]
  inhibition: Active
A549 [12]
  Activity: inactive
SK-OV-3 [13]
  Activity: Active
SK-OV-3 [14]
  Activity: Active
[15]
  Activity: Active
[16]
  inhibition: Active
A549 [17]
  Activity: Dose-Dependent Effect
[18]
  Activity: Dose-Dependent Effect
[19]
  inhibition: Active
A549 [20]
  Activity: inactive
[21]
  inhibition: Active
Homo sapiens
  Ratio IC50: 61.2
[22]
  Activity: Active
SK-OV-3 [23]
  Activity: Active
SK-OV-3 [24]
  Activity: inactive
[25]
  inhibition: Active
SK-OV-3 [26]
  Activity: Active

## O=c1cc(-c2ccc(O)cc2)oc2c(CN3CCN(Cc4ccco4)CC3)c(O)cc(O)c12
[27]
  IC50: 0.0179 µM
SK-OV-3 [14]
  Activity: Active
A549 [17]
  Activity: Dose-Dependent Effect
[28]
  IC50: 1.3 µM
A549 [20]
  Activity: inactive
[29]
  Activity: Toxic
Homo sapiens
  Ratio IC50: 72.6

## O=C(c1cc(Cc2n[nH]c(=O)c3ccccc23)ccc1F)N1CCN(C(=O)C2CC2)CC1 [OLAPARIB]
SK-OV-3 [5]
  Activity: Active
SK-OV-3 [30]
  Activity: 2.12
